The conditions of this data set: 101.33 kPa, Liquid; for viscosity: Capillary tube (Ostwald / Ubbelohde) method; for mass density: Pycnometric method; for speed of sound: Sing-around technique in a fixed-path interferometer.

Molecules are shown by their SMILES. ± gives the expanded uncertainty stated by the source.

For orientation: viscosity means the internal friction of a fluid under shear. By mass density is commonly meant mass per unit of volume. A word on the speed of sound: it is how fast a sound wave travels through the sample. For `CN(C)C=O` [dimethylformamide], for the setting “303.15 K”, the viscosity is on record as 0.715 ± 0.018 mPa·s, the mass density worked out at 927.2 ± 4.9 kg/m3 and the speed of sound is 1404.6 ± 7.5 m/s. Where the note is “308.15 K”, the viscosity was determined as 0.693 ± 0.018 mPa·s, the mass density is 919.7 ± 4.8 kg/m3 and the speed of sound is reported as 1400.8 ± 7.5 m/s. Also, for the setting “313.15 K”, the viscosity came out at 0.677 ± 0.018 mPa·s, the mass density came to 916.4 ± 4.8 kg/m3 and the speed of sound is given as 1420.8 ± 7.6 m/s.

For the compound `CCO` [ethanol], where the note is “303.15 K”, the mass density came to 772.4 ± 3.4 kg/m3 and the speed of sound worked out at 1135.4 ± 6.8 m/s. Further, where the note is “308.15 K”, the viscosity amounted to 0.658 ± 0.017 mPa·s, the mass density turned out to be 771.6 ± 3.4 kg/m3 and the speed of sound came out at 1133.2 ± 6.8 m/s. Further, for the setting “313.15 K”, the viscosity is given as 0.617 ± 0.016 mPa·s, the mass density is recorded as 771.2 ± 3.4 kg/m3 and the speed of sound was determined as 1130.8 ± 6.8 m/s.

On to `CCC(C)=O` [butanone], for which, under “303.15 K”, the viscosity is listed as 0.352 ± 0.009 mPa·s, the mass density is listed as 802.5 ± 3.7 kg/m3 and the speed of sound turned out to be 1168.6 ± 6.9 m/s. In addition, where the note is “308.15 K”, the viscosity turned out to be 0.334 ± 0.009 mPa·s, the mass density stood at 800.1 ± 3.6 kg/m3 and the speed of sound is reported as 1157.2 ± 6.9 m/s. Also, for the setting “313.15 K”, the viscosity was 0.315 ± 0.008 mPa·s, the mass density came to 800.3 ± 3.7 kg/m3 and the speed of sound stood at 1130.4 ± 6.8 m/s.

(Values after the NIST ThermoML archive (doi:10.1016/j.fluid.2007.08.006).)
